Bounds are passed on as bounds.

The nature of data set [1]: (§1) Metabolic stability in human liver microsomes assessed as intrinsic clearance at 1 uM after 90 mins. It counts as ADME, Microsome. The conditions noted are these: liver microsomes. (In general: Liver microsomes are a subcellular fraction often used to study metabolism.)
In another data set the test system is HeLa. The experiment in a line: Antiproliferative activity against human P53-deficient HeLa cells after 72 hrs by celltiter-blue cell viability assay. The data set is classed as functional.
A short description of data set [2]: Clearance in Sprague-Dawley rat plasma at 3 mg/kg, iv and 3 mg/kg, po. The data set is classed as ADME, organism-based.
The nature of data set [3]: Metabolic stability in rat liver microsomes assessed as intrinsic clearance at 1 uM after 90 mins. It counts as ADME, Microsome.
The nature of data set [4]: Metabolic stability in dog liver microsomes assessed as intrinsic clearance at 1 uM after 90 mins. The data set is classed as ADME, Canis lupus familiaris, Microsome. The conditions noted are these: for microsomal CLint at 1 µM: liver microsomes.
The target of another data set is Histone deacetylase 1 (Homo sapiens, UniProt Q13547).
Histone deacetylase 1, sequence (Q13547 whole entry): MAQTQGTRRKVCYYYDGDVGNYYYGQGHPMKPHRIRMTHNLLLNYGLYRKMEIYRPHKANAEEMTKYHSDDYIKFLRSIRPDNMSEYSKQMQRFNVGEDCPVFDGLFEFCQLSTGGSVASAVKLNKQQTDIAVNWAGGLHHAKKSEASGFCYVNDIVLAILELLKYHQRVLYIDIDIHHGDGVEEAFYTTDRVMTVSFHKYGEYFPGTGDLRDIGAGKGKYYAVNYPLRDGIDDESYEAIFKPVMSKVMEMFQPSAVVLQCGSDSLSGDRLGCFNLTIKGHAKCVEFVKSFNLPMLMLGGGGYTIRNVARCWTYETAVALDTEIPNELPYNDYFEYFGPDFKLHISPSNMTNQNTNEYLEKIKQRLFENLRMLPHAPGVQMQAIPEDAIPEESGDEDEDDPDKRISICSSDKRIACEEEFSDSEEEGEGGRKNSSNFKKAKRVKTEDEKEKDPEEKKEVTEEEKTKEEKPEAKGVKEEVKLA
Another data set relates to HCT-116. The experiment in a line: Antiproliferative activity against human P53 expressing HCT116 cells after 72 hrs by celltiter-blue cell viability assay. The data set is classed as functional.
A further data set deals with MCF7. The experiment in a line: Antiproliferative activity against human MCF7 cells after 72 hrs by celltiter-blue cell viability assay. It counts as functional. (Alamar Blue is a resazurin reagent that responds to reducing activity.)
For the next data set, the system named is G-401. The experiment in a line: Antiproliferative activity against human G401 cells after 72 hrs by celltiter-blue cell viability assay. It counts as functional.
A further data set deals with Liver microsomes. The data set is described as §1. It counts as ADME, Microsome. The conditions noted are these: microsomes, 1.5 h, 1 µM.
The subject of a further data set is A549. The experiment in a line: Antiproliferative activity against human P53 expressing A549 cells after 72 hrs by celltiter-blue cell viability assay. It counts as functional. The conditions noted are these: A549, 72 h.
The next data set has as its system A2780. The experiment in a line: Antiproliferative activity against human A2780 cells after 72 hrs by celltiter-blue cell viability assay. The data set is classed as functional. The conditions noted are these: A2780, 72 h.

Description for Histone deacetylase 1: Inhibition of human C-terminal FLAG-tagged HDAC1 in HEK293 cells

In the case of `CCC(=O)CCCCC[C@H](NC(=O)C1CCN(C)CC1)c1ncc(-c2cc(OC)c3ccccc3n2)[nH]1`, the values for the microsomal CLint at 1 µM in data set [1], in [3] and in data set [4] were 10 µL/min/mg, 36 µL/min/mg and 5 µL/min/mg, respectively. The compound also registered a CC50 with HeLa of 0.77 µM. For the same compound, the clearance in data set [2] is 36 mL/min/kg. The compound further came in with an IC50 at Histone deacetylase 1 of 0.03 µM.
Consider `O=C(CCCCCCC(=O)Nc1ccccc1)NO` [VORINOSTAT], for which the CC50 in the data set with HCT-116 came out at 1 µM; in the data set with MCF7, 3 µM; in the data set on G-401 it was 1 µM.
`CCC(=O)CCCCC[C@H](NC(=O)CCN1CCN(C)CC1)c1ncc(-c2cc(OC)c3ccccc3n2)[nH]1`: the microsomal CLint at 1 µM in data set [1] was 140 µL/min/mg; in data set [3] it was 190 µL/min/mg; in data set [4] it was 170 µL/min/mg. In the data set on HeLa, this compound displayed a CC50 of 0.39 µM. On Histone deacetylase 1, half-maximal inhibition (IC50) required 0.017 µM.
Regarding `CCC(=O)CCCCC[C@H](NC(=O)CCN(C)C)c1ncc(-c2cc(OC)c3ccccc3n2)[nH]1`, the microsomal CLint at 1 µM in [1] is 15 µL/min/mg; in [3] it was 38 µL/min/mg; in [4] it was 6 µL/min/mg. The cytotoxic concentration (CC50) in the data set with HeLa amounted to 0.5 µM. In addition, the clearance in data set [2] was 59 mL/min/kg. For the same compound, the half-inhibitory concentration (IC50) against Histone deacetylase 1 worked out at 0.051 µM.
On to `CCC(=O)CCCCC[C@H](NC(=O)C1CN(C)C1)c1ncc(-c2cc(OC)c3ccccc3n2)[nH]1`, for which the microsomal CLint at 1 µM in [1] was 16 µL/min/mg; in data set [3], 15 µL/min/mg; in data set [4], 9 µL/min/mg. Besides, the CC50 in the data set on HeLa is 0.97 µM. The compound also registered a clearance in [2] of 20 mL/min/kg. Moreover, the IC50 at Histone deacetylase 1 is 0.162 µM.
For the compound `CCC(=O)CCCCC[C@H](NC(=O)C1CCN(C)CC1)c1ncc(-c2ccc3ccccc3n2)[nH]1`, the microsomal CLint at 1 µM in [1] is 12 µL/min/mg; in data set [3] it was 110 µL/min/mg; in data set [4], 9 µL/min/mg. In the data set with HeLa, this compound showed a cytotoxic concentration (CC50) of 0.48 µM. Moreover, in data set [2], the clearance came to 155 mL/min/kg. Besides, the IC50 against Histone deacetylase 1 stood at 0.022 µM.
For `CCC(=O)CCCCC[C@H](NC(=O)C1CN(C)C1)c1ncc(-c2cc3ccccc3nc2F)[nH]1`, the results for the microsomal CLint at 1 µM in data set [1], in data set [3] and in data set [4] were 18 µL/min/mg, 34 µL/min/mg and 28 µL/min/mg, respectively. In addition, the midpoint of cytotoxicity with HeLa, the CC50, lay at 0.19 µM. At Histone deacetylase 1, this compound registered an IC50 of 0.008 µM.
For `CCC(=O)CCCCC[C@H](NC(=O)C1CCN(C)CC1)c1ncc(-c2ccc3ncccc3c2)[nH]1`, the figures for the microsomal CLint at 1 µM in [1], in data set [3] and in data set [4] were 12 µL/min/mg, 98 µL/min/mg and 23 µL/min/mg, respectively. In the data set with HeLa, this compound returned a CC50 of 0.2 µM. At Histone deacetylase 1, this compound displayed an IC50 of 0.002 µM.
For the compound `CCC(=O)CCCCC[C@H](NC(=O)C1CCN(C)CC1)c1ncc(-c2ccc3ccccc3c2)[nH]1`, the results for the microsomal CLint at 1 µM in [1], in data set [3] and in [4] were 194 µL/min/mg, more than 200 µL/min/mg and 194 µL/min/mg, respectively. This compound also yielded a CC50 in the data set with HeLa of 0.21 µM.
`CC(=O)CCCCC[C@H](NC(=O)C1CCN(C)CC1)c1ncc(-c2ccc3ccccc3c2)[nH]1`: the CL in the data set on Liver microsomes was found to be 194 µL/min/mg; in [4] (microsomes, 1.5 h, 1 µM) it was 194 µL/min/mg. Moreover, the midpoint of cytotoxicity in the data set on HeLa, the CC50, lay at 0.3 µM.
Take `CCC(=O)CCCCC[C@H](NC(=O)C1CCN(C)CC1)c1ncc(-c2cnc3ccccc3c2)[nH]1`: the microsomal CLint at 1 µM in data set [1] came out at 49 µL/min/mg; in data set [3] it was 510 µL/min/mg; in data set [4], 24 µL/min/mg. For the same compound, in the data set with HeLa, half-maximal cytotoxicity (CC50) was put at 0.25 µM. Also, half-maximal inhibition against Histone deacetylase 1 (IC50) required 0.004 µM.
`CCC(=O)CCCCC[C@H](NC(=O)C1CN(C)C1)c1ncc(-c2cnc3ccccc3n2)[nH]1`: the values for the microsomal CLint at 1 µM in [1], in data set [3] and in data set [4] were 19 µL/min/mg, 27 µL/min/mg and 20 µL/min/mg, respectively. This compound displayed a CC50 in the data set on HeLa of 0.43 µM. In addition, on Histone deacetylase 1, the IC50 worked out at 0.008 µM.
The corresponding values for `CCC(=O)CCCCC[C@H](NC(=O)C1CCN(C)CC1)c1ncc(-c2cc3ccccc3cn2)[nH]1` are 29 µL/min/mg, 210 µL/min/mg, 18 µL/min/mg, 0.022 µM and 0.008 µM.
As to `Nc1ccccc1NC(=O)c1ccc(CNC(=O)OCc2cccnc2)cc1` [ENTINOSTAT], the CC50 is 1.2 µM in the data set on A549; 0.7 µM in the data set with HCT-116 (Homo sapiens, HCT-116, 72 h); 1.8 µM in the data set on HeLa; 3 µM in the data set with A2780; 1.3 µM in the data set on G-401 (Homo sapiens, G-401, 72 h).
As to `CCC(=O)CCCCC[C@H](NC(=O)C1CN(C)C1)c1ncc(-c2ccc3nccnc3c2)[nH]1`, the microsomal CLint at 1 µM is less than 1 µL/min/mg in data set [1], 13 µL/min/mg in data set [3] and 3 µL/min/mg in data set [4]. The compound also had a CC50 in the data set with HeLa of 1.2 µM. The IC50 against Histone deacetylase 1 amounted to 0.039 µM.

The microsomal CLint is the rate of metabolic loss divided by the concentration. A word on the CC50: it is the concentration at which the toxic effect on the cells reaches its halfway point. Higher therefore signals lower toxicity to the cells. The term IC50 denotes the point on the concentration scale where inhibition reaches its midpoint. A low value points to inhibition by little substance.

For the origin of these results see ChEMBL document CHEMBL1136937, “Discovery of a potent class I selective ketone histone deacetylase inhibitor with antitumor activity in vivo and optimized pharmacokinetic properties” (J Med Chem, 2009).
